Assay results as given in publication PMC10923054, “Antiplasmodial peptaibols act through membrane directed mechanisms” (Cell Chemical Biology, 2024).

Assays:
PfMDR1 cKD parasite line = experiment: MDR1 compound susceptibility assay (Renilla luciferase); assay type: cell-based, P. falciparum
Description: A conditional knockdown parasite line was generated for the P. falciparum multi-drug resistance 1 (MDR1; PF3D7_0523000) following previously described procedures.[84]^,[85] The native PfMDR1 locus was engineered using CRISPR/SpCas9 to afford transcriptional fusion of 10 tandem TetR-DOZI binding aptamers in the 3′UTR for anhydrotetracycline (aTc)-dependent regulation of PfMDR1 expression.
(§1) As a control cell line, a parasite line expressing an aptamer-regulatable fluorescent protein integrated in the cg6 locus[84] was assayed in parallel. Synchronous ring-stage parasites in the presence (0.5 μM) and absence of aTc were dispensed into 384-well polystyrene microplates (Corning®), and compounds added using the Janus® platform (PerkinElmer). DMSO- and DHA (0.5 μM) served as normalization controls for maximal and minimum signal. Luminescence was measured after 72 h and IC50 values were obtained from normalized dose-response curves using GraphPad Prism Version 8.

[1] = test system: wild-type YFP-expressing NF54; experiment: MDR1 compound susceptibility assay, control line; assay type: cell-based, P. falciparum; conditions: Plasmodium falciparum, NF54, MDR1, 72 h, read-out: IC50 in the wild-type YFP-expressing NF54
Description: as §1

[2] = test system: P. falciparum asexual blood stage parasites grown in 10% human serum; experiment: Antiplasmodial activity with serum media; assay type: cell-based; conditions: Plasmodium falciparum, 336 h; RPMI with 10% human serum, maintained minimum 2 weeks; mean ± SEM from 3 biological replicates
Description: (§2) Asexual blood stage parasites grown in the Chakrabarti laboratory were cultured based on a protocol by Trager and Jensen[57] with some modifications.[35] […] For comparison screening using serum vs Albumax II, culture media was changed from RPMI with 0.5% Albumax II to RPMI with 10% human serum and maintained for a minimum of 2 weeks prior to assay use.
(§3) Inhibitor EC50 determination in 3D7 and Dd2 was performed as discussed in,[35] based on established protocols.[60] Assays utilized asynchronous culture at 1% parasitemia, 1% hematocrit. Culture was incubated with compound dilutions for 72 h followed by freezing at −80°C to promote lysis, then thawing and incubation for 45 min–1 h with 1× SYBR Green I in a lysis buffer (20 mM Tris-HCL, 0.08% saponin, 5 mM EDTA, and 0.8% Triton X-100). Fluorescence was read 485 nm excitation, 530 nm emission on a Synergy Neo2 multimode reader (BioTek Winsooki, VT) and EC50 curves were generated using CDD Vault (https://www.collaborativedrug.com/).

[3] = test system: P. falciparum asexual blood stage parasites grown in 0.5% Albumax II; experiment: Antiplasmodial activity with Albumax II media; assay type: cell-based; conditions: Plasmodium falciparum; RPMI with 0.5% Albumax II; mean ± SEM from 3 biological replicates
Description: as §2, §3

[4] = concentrations up to 200 μM; propionate buffer pH 5.2, 16 h, 37°C; biological triplicate
Description: Assay plates were incubated at 37°C with gentle shaking for 16 h. A combination of 7.5% SDS in a 0.1 M bicarbonate buffer (pH 9.1) was then added to microtiter wells at a 1:3 ratio with gentle mixing. Plates were incubated for 10 min to allow crystals to settle before taking 50 μL of supernatant and adding it to 200 μL of 2.5% SDS in a 0.1 M bicarbonate buffer, pH 9.1. After mixing, absorbances were read at 405 nm on a Synergy Neo2 multimode reader (BioTek, Winsooki, VT). […] Images of the 200 μM treatment or control prior to SDS quenching were taken using a Nikon Eclipse TE200 inverted microscope.

P. falciparum Dd2 = experiment: Phenotypic screen: asexual blood stage EC50 determination (SYBR Green I); assay type: cell-based; conditions: values in Data S1 (not shown)
Description: Asexual blood stage parasites grown in the Chakrabarti laboratory were cultured based on a protocol by Trager and Jensen[57] with some modifications.[35] Culture was maintained at 4% hematocrit with human A+ whole blood obtained from the Florida OneBlood, in RPMI 1640 supplemented with 25 mM HEPES pH 7.4, 26 mM NaHCO3, 2% dextrose, 15 mg/L hypoxanthine, 25 mg/L gentamycin, and 0.5% Albumax II. Incubator conditions remained at 37°C and 5% CO2, 5% O2, 90% N2, or 95% air. For comparison screening using serum vs Albumax II, culture media was changed from RPMI with 0.5% Albumax II to RPMI with 10% human serum and maintained for a minimum of 2 weeks prior to assay use.
as §3

Question: Which IC50 (PfMDR1 cKD parasite line; Plasmodium falciparum, MDR1, 72 h, read-out: IC50 when the protein was knocked down) does the source give for `OC(c1cc(C(F)(F)F)nc2c(C(F)(F)F)cccc12)C1CCCCN1` (stereo not shown) [mefloquine, reference compound] here?
Answer: The IC50 was 5 nM.

Question: And the “shift in sensitivity upon PfMDR1 knockdown” value (PfMDR1 cKD parasite line; with (0.5 μM) vs without aTc, 72 h, luminescence)?
Answer: Its value is ~12 fold.

Question: What about the IC50 [1] of the same compound?
Answer: The IC50 was 0.4 nM.

Question: For `CCN(CC)CCCC(C)Nc1ccnc2cc(Cl)ccc12` (stereo not shown) [CQ, chloroquine, reference compound], which EC50 [2] is on record?
Answer: Its EC50 is 100 ± 20 nM.

Question: And the EC50 [3]?
Answer: The EC50 was 160 ± 10 nM.

Question: What about the “inhibition of β-hematin crystallization” value [4] of the same compound?
Answer: Its value is “clear, dose-dependent inhibition”.

Question: With “Ac-Aib-L-Asn-L-Leu-L-Ile-Aib-L-Pro-D-Iva-L-Leu-Aib-L-Pro-L-Leu-NH2 [Harzianin HB I – amide, synthesized amide of an 11-AA peptaibol]” as the compound, how does the “activity of new isomers relative to their original counterparts” value (P. falciparum Dd2) read?
Answer: Its value is “decreased inhibition”.
